One test has as its target T1, xanthine oxidase (Bos taurus, UniProt P80457).
T1 construct: purchased Sigma Chemical Company; host or cells: butter milk
Kind of test: In vitro determination of xanthine oxidase (XOD) inhibition. The class given is biochemical. The following applies: xanthine oxidase from butter milk, xanthine substrate, pH 7.4, 37° C. How it is done: (1) Preparation of test compounds:
Test compounds (compounds of Ex. No. listed in Table 1) were dissolved in dimethylsulfoxide and diluted with a 50 mM phosphate buffer to prepare aqueous solutions respectively having predetermined concentrations.
The inhibition rate was determined by the following equation: [formula]
The inhibition (%) was determined on each test compound prepared according to (1), and the IC50 value on the xanthine oxidase (XOD) inhibition was calculated from the value of inhibition.

The next test deals with interleukin 1 production. Kind of test: Interleukin 1 production inhibitory activity (LPS, abdominal exuded macrophage, ELISA). The class given is cell-based, BALB/c mouse. The conditions noted are these: 10^-6 M, 1 μg/ml LPS, 24 hours, mouse macrophage. The procedure: 1 ml of a 5% oyster glycogen solution was intra-abdominally administered to a BALB/c mouse (male, 8 weeks in age), and 4 days after the administration, the infiltrated abdominal exuded cells were adhered to a plastic dish for 2 hours, and 1 μg/ml of LPS was allowed to act on macrophage (1×10^6 cells). Interleukin 1 extricated on the supernatant in 24 hours was measured by an ELISA technique. The test compound (compounds of Ex. No. described in Table 3) was prepared so as to have a concentration of 10^-6 M, and the interleukin 1 production inhibitory activity was, expressed in terms of the percentage inhibition based on the amount of production of the control.
(ELISA stands for enzyme-linked immunosorbent assay.)

Another test deals with serum uric acid. As to the kind of experiment: Determination of oral administration: lowering of serum uric acid in mice. The class given is in vivo, ICR male mice. The following applies: Mus musculus; ICR male mice, oral, 1 mg/kg, 2 hours after administration, serum; read-out: Activity of lowering uric acid. How it is done:
Test compounds suspended in a 5% gum arabic solution was forcibly administered by oral administration (compounds of Ex. No. of Table 2, dose: 1 mg/kg) to ICR male mice (age: about 7 weeks) (one group: 6 mice) by means of an oral probe. 2 hours after the administration, thoracotomy was conducted under etherization to collect blood from the heart, and serum was removed by a conventional process. The serum uric acid was measured by a biochemical automatic analyzer (Flexigem; Electro-Nucleonics, Inc.) by using a uric acid measurement kit (UA reagent; International Reagent) to determine the percentage of the lowering of uric acid. [formula]

T1 sequence (P80457 whole entry): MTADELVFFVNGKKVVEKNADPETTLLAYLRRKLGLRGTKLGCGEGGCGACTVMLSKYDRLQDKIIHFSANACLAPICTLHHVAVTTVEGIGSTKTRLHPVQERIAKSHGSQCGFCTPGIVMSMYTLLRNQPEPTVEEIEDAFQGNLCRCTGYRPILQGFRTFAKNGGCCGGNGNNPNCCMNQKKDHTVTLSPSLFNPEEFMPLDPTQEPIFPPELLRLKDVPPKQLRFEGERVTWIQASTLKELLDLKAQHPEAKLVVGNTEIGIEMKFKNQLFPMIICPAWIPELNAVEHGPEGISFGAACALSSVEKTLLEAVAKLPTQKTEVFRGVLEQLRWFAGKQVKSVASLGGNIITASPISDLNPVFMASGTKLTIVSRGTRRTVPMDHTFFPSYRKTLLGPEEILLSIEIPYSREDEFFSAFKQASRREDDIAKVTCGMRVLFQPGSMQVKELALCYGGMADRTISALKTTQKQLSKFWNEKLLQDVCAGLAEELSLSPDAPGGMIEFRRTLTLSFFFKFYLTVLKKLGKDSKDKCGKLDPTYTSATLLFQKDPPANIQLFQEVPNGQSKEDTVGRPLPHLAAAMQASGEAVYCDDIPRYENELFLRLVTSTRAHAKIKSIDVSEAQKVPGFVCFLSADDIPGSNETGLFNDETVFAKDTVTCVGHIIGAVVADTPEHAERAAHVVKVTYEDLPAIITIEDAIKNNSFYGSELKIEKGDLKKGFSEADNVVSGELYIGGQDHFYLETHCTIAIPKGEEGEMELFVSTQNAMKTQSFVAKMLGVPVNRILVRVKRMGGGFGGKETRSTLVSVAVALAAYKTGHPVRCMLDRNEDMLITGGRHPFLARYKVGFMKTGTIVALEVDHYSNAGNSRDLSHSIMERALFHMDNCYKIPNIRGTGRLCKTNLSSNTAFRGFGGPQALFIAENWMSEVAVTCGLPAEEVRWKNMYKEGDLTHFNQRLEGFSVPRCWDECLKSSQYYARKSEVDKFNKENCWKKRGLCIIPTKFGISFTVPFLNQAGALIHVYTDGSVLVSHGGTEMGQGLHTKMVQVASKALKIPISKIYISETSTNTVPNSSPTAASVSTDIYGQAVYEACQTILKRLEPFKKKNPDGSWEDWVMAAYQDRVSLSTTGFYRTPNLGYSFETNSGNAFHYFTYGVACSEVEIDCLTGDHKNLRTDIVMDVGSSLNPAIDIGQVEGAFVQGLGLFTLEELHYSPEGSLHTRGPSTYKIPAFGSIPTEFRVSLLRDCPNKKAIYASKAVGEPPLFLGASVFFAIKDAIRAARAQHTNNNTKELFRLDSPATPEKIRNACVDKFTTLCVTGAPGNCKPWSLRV

The IC50 is the concentration that gives 50% inhibition. Read a high IC50 as weaker potency in that assay. By inhibition is commonly meant the change of the read-out against control, counted positive when it falls. Lower therefore signals a weak effect. On xanthine oxidase, `Cc1nc(-c2cccc(OC(C)C)c2)sc1C(=O)O` [Example 1, 2-(3-isopropoxyphenyl)-4-methyl-5-thiazolecarboxylic acid] yielded an IC50 of 67 nM. The molecule further displayed an inhibition at 1 µM in the test on interleukin 1 production of 83%.

For `Cc1nc(-c2ccc(C(F)(F)F)cc2)sc1C(=O)O` [Example 6, 4-Methyl-2-(4-trifluoromethylphenyl)-5-thiazolecarboxylic acid], the IC50 on xanthine oxidase was determined as 310 nM. This molecule also yielded an inhibition at 1 µM with interleukin 1 production of 38%.

Take `Cc1nc(-c2ccc(OCC3CCCCC3)cc2)sc1C(=O)O` [Example 7, 2-(4-Cyclohexylmethyloxyphenyl)-4-methyl-5-thiazolecarboxylic acid]: inhibition on xanthine oxidase was half-maximal at 46 nM (IC50). Moreover, the inhibition at 1 µM in the test on interleukin 1 production came out at 39%.

The molecule `Cc1nc(-c2ccc(OCC(=O)O)cc2)sc1C(=O)O` [Example 11, 2-(4-Carboxymethyloxyphenyl)-4-methyl-5-thiazolecarboxylic acid] yielded an IC50 against xanthine oxidase of 77 nM. In the test on interleukin 1 production, this molecule registered an inhibition at 1 µM of 23%.

`Cc1nc(-c2ccc(OCCCCC(=O)O)cc2)sc1C(=O)O` [Example 12, 2-(4-(4-Carboxybutyloxy)phenyl)-4-methyl-5-thiazolecarboxylic acid] showed a half-maximal inhibitory concentration (IC50) against xanthine oxidase of 12 nM. Further, in the test with interleukin 1 production, the inhibition at 1 µM was found to be 42%.

In turn, `Cc1nc(-c2ccc(C(=O)O)cc2)sc1C(=O)O` [Example 14, 2-(4-Carboxyphenyl)-4-methyl-5-thiazolecarboxylic acid] displayed a half-inhibitory concentration (IC50) against xanthine oxidase of 3.2 nM. For the same molecule, at 1 µM the inhibition with interleukin 1 production was 35%.

`Cc1nc(-c2cccc(C(=O)Nc3ccc(Cl)cc3)c2)sc1C(=O)O` [Example 15, 2-(3-(4-chlorophenylcarbamoyl)phenyl)-4-methyl-5-thiazolecarboxylic acid]: the IC50 at xanthine oxidase was found to be 150 nM. The inhibition at 1 µM in the test on interleukin 1 production was found to be 38%.

In turn, `CC(C)Oc1ccc(-c2nc(O)c(C(=O)O)s2)cc1` [Example 22, 4-Hydroxy-2-(4-isopropoxyphenyl)-5-thiazolecarboxylic acid] displayed an IC50 at xanthine oxidase of 45 nM. In the test on interleukin 1 production, this molecule had an inhibition at 1 µM of 45%.

`Cc1nc(-c2cc(Cl)cc(Cl)c2)sc1C(=O)O` [Example 27, 2-(3,5-Dichlorophenyl)-4-methyl-5-thiazolecarboxylic acid] had a 50% inhibitory concentration (IC50) against xanthine oxidase of 10 nM. Also, the inhibition at 1 µM with interleukin 1 production worked out at 43%.

`Cc1nc(-c2ccc(OCCN3CCOCC3)c(Cl)c2)sc1C(=O)O` [Example 56, 2-(3-Chloro-4-(2-morpholinoethyloxy)phenyl)-4-methyl-5-thiazolecarboxylic acid] yielded an IC50 on xanthine oxidase of 1.5 nM. Moreover, the inhibition in vivo at 1 mg/kg in the test on serum uric acid came out at 50%.

The molecule `Cc1nc(-c2ccc(OCCN3CCCCC3)c(Cl)c2)sc1C(=O)O` [Example 57, 2-(3-Chloro-4-(2-piperidinoethyloxy)phenyl)-4-methyl-5-thiazolecarboxylic acid] returned an IC50 at xanthine oxidase of 1.2 nM. Further, in the test with serum uric acid, the inhibition in vivo at 1 mg/kg turned out to be 15%.

With `Cc1nc(-c2ccc(N3CCOCC3)c(Cl)c2)sc1C(=O)O` [Example 59, 2-(3-chloro-4-morpholinophenyl)-4-methyl-5-thiazolecarboxylic acid], the IC50 against xanthine oxidase was found to be 0.38 nM. The inhibition in vivo at 1 mg/kg with serum uric acid came to 62%.

Turning to `Cc1nc(-c2ccc(N3CCCCC3)c(Cl)c2)sc1C(=O)O` [Example 60, 2-(3-Chloro-4-piperidinophenyl)-4-methyl-5-thiazolecarboxylic acid], the IC50 on xanthine oxidase is 0.24 nM. The inhibition in vivo at 1 mg/kg in the test with serum uric acid is 55%.

On xanthine oxidase, `Cc1nc(-c2ccc(Sc3ccc(Cl)cc3)c(Cl)c2)sc1C(=O)O` [Example 61, 2-(3-Chloro-4-(4-chlorophenylthio)phenyl)-4-methyl-5-thiazolecarboxylic acid] registered an IC50 of 2 nM. Besides, the inhibition in vivo at 1 mg/kg in the test with serum uric acid was found to be 32%.

In the case of `Cc1nc(-c2ccc([S+]([O-])c3ccc(Cl)cc3)c(Cl)c2)sc1C(=O)O` (stereo not shown) [Example 62, 2-(3-chloro-4-(4'-chlorophenylsulfinyl)phenyl)-4-methyl-5thiazolecarboxylic acid], the IC50 against xanthine oxidase was found to be 0.64 nM. For the same molecule, the inhibition in vivo at 1 mg/kg in the test with serum uric acid was 35%.

Consider `Cc1nc(-c2ccc(OCC(C)C)c(Br)c2)sc1C(=O)O` [Example 63, 2-(3-bromo-4-isobutyloxyphenyl)-4-methyl-5-thiazolecarboxylic acid], for which inhibition against xanthine oxidase was half-maximal at 0.94 nM (IC50). Further, the inhibition in vivo at 1 mg/kg in the test with serum uric acid amounted to 35%.

Take `Cc1nc(-c2ccc(Sc3ccc(Cl)cc3)c(Br)c2)sc1C(=O)O` [Example 65, 2-(3-Bromo-4-(4-chlorophenylthio)phenyl)-4-methyl-5-thiazolecarboxylic acid]: the IC50 against xanthine oxidase was 1.6 nM. Further, the inhibition in vivo at 1 mg/kg in the test on serum uric acid amounted to 42%.

Molecule `Cc1nc(-c2ccc(N3CCCCC3)c(Br)c2)sc1C(=O)O` [Example 66, 2-(3-Bromo-4-piperidinophenyl)-4-methyl-5-thiazolecarboxylic acid] displayed an IC50 against xanthine oxidase of 0.63 nM. Moreover, in the test on serum uric acid, the inhibition in vivo at 1 mg/kg was found to be 65%.

At xanthine oxidase, `Cc1nc(-c2cc(Cl)c(OC(C)C)c(Cl)c2)sc1C(=O)O` [Example 68, 2-(3,5-dichloro-4-isopropoxyphenyl)-4-methyl-5-thiazolecarboxylic acid] gave an IC50 of 2.2 nM. Further, the inhibition in vivo at 1 mg/kg in the test with serum uric acid amounted to 13%.

Consider `Cc1nc(-c2cc(Cl)c(OCC(C)C)c(Cl)c2)sc1C(=O)O` [Example 69, 2-(3,5-Dichloro-4-isobutyloxyphenyl)-4-methyl-5-thiazolecarboxylic acid], for which, on xanthine oxidase, the IC50 was determined as 1.5 nM. In addition, in the test on serum uric acid, the inhibition in vivo at 1 mg/kg stood at 55%.

For `CCC(CC)COc1c(Cl)cc(-c2nc(C)c(C(=O)O)s2)cc1Cl` [Example 70, 2-(3,5-Dichloro-4-(2-ethylbutyloxy)phenyl)-4-methyl-5-thiazolecarboxylic acid], on xanthine oxidase, the IC50 amounted to 0.8 nM. Moreover, the inhibition in vivo at 1 mg/kg in the test on serum uric acid stood at 15%.

The molecule `Cc1nc(-c2cc(Cl)c(OCCC(C)C)c(Cl)c2)sc1C(=O)O` [Example 71, 2-(3,5-Dichloro-4-isopentyloxyphenyl)-4-methyl-5-thiazolecarboxylic acid] registered an IC50 at xanthine oxidase of 1.5 nM. Moreover, the inhibition in vivo at 1 mg/kg in the test with serum uric acid is 50%.

The molecule `Cc1nc(-c2cc(Cl)c(OCCN3CCOCC3)c(Cl)c2)sc1C(=O)O` [Example 72, 2-(3,5-Dichloro-4-(2-morpholinoethyloxy)phenyl)-4-methyl-5-thiazolecarboxylic acid] registered a half-inhibitory concentration (IC50) against xanthine oxidase of 0.7 nM. The inhibition in vivo at 1 mg/kg in the test with serum uric acid was 48%.

Regarding `Cc1nc(-c2ccc(OCC(C)(C)C)c(C#N)c2)sc1C(=O)O` [Example 78, 2-(3-Cyano-4-neopentyloxyphenyl)-4-methyl-5-thiazolecarboxylic acid], inhibition on xanthine oxidase was half-maximal at 1.9 nM (IC50). Besides, the inhibition in vivo at 1 mg/kg with serum uric acid stood at 91%.

For the molecule `Cc1nc(-c2ccc(OCCC(C)C)c(C#N)c2)sc1C(=O)O` [Example 79, 2-(3-Cyano-4-isopentyloxyphenyl)-4-methyl-5-thiazolecarboxylic acid], half-maximal inhibition at xanthine oxidase (IC50) required 2.2 nM. Besides, the inhibition in vivo at 1 mg/kg in the test with serum uric acid came to 89%.

On to `CCOCCOc1ccc(-c2nc(C)c(C(=O)O)s2)cc1C#N` [Example 80, 2-(3-CYano-4-(2-ethoxyethyloxy)phenyl)-4-methyl-5-thiazolecarboxylic acid], for which, on xanthine oxidase, the IC50 was 1.9 nM. The inhibition in vivo at 1 mg/kg with serum uric acid stood at 87%.

As for `Cc1nc(-c2ccc(N3CCOCC3)c(C#N)c2)sc1C(=O)O` [Example 81, 2-(3-Cyano-4-morpholinophenyl)-4-methyl-5-thiazolecarboxylic acid], on xanthine oxidase, half-maximal inhibition (IC50) was put at 1.7 nM. Besides, the inhibition in vivo at 1 mg/kg in the test on serum uric acid worked out at 91%.

Molecule `Cc1nc(-c2ccc(N3CCCCC3)c(C#N)c2)sc1C(=O)O` [Example 82, 2-(3-Cyano-4-piperidinophenyl)-4-methyl-5-thiazolecarboxylic acid] registered a 50% inhibitory concentration (IC50) against xanthine oxidase of 2.7 nM. Moreover, the inhibition in vivo at 1 mg/kg in the test with serum uric acid was determined as 93%.

In the case of `Cc1nc(-c2ccc(OCC(C)C)c(C(F)(F)F)c2)sc1C(=O)O` [Example 83, 2-(4-isobutyloxy-3-trifluomethylphenyl)-4-methyl-5-thiazolecarboxylic acid], the IC50 on xanthine oxidase was determined as 1.1 nM. Further, the inhibition in vivo at 1 mg/kg in the test with serum uric acid was determined as 86%.

In the case of `Cc1nc(-c2ccc(OCC(C)(C)C)c(C(F)(F)F)c2)sc1C(=O)O` [Example 84, 4-Methyl-2-(4-neopentyloxy-3-trifluoromethylphenyl)-5-thiazolecarboxylic acid], on xanthine oxidase, the IC50 turned out to be 2.9 nM. Further, in the test with serum uric acid, the inhibition in vivo at 1 mg/kg stood at 80%.

Molecule `Cc1nc(-c2ccc(OCC(C)(C)C)c(I)c2)sc1C(=O)O` [Example 85, 2-(3-iodo-4-neopentyloxyphenyl)-4-methyl-5-thiazolecarboxylic acid] gave an IC50 on xanthine oxidase of 0.12 nM. In the test with serum uric acid, the inhibition in vivo at 1 mg/kg came to 77%.

Take `Cc1nc(-c2ccc(OCC(C)C)c(C=O)c2)sc1C(=O)O` [Example 86, 2-(3-formyl-4-isobutyloxyphenyl)-4-methyl-5-thiazolecarboxylic acid]: the IC50 on xanthine oxidase was 0.51 nM. The inhibition in vivo at 1 mg/kg with serum uric acid was 72%.

Values taken from patent publication US5614520A, “2-arylthiazole derivatives and pharmaceutical composition thereof” (priority 1990, dated 1997).
